From patent US6635641B2 (Agouron Pharmaceuticals, Inc., priority 2000, dated 2003)
Read-outs that look alike come from different tables or passages of the source.

Experiments:
LCK tyrosine kinase = biological target: T1, LCK tyrosine kinase (Homo sapiens, UniProt P06239, C224D/P223M); test: LCK spectrophotometric assay; type: biochemical; details: for inhibition at 1 µM: read-out: LCK-P percent inhibition; for Ki: read-out: LCK-P Ki;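 as to all read-outs here: recombinant LCK kinase activity on poly(E4Y1), ADP formation coupled through PK/LDH to NADH oxidation, followed as absorbance loss at 340 nm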
T1 construct: starting from amino acid residue 223 to the end of the protein at residue 509; made in house; host or cells: insect cells

[1] = biological target: T2, unphosphorylated VEGF-R2Δ50 (FLVK) (Homo sapiens, UniProt P35968, DEL940-989/E990V); test: VEGF-R2 coupled spectrophotometric assay, unphosphorylated construct (FLVK); type: biochemical;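 also: Baculovirus-expressed cytosolic kinase domain, ADP formation linked via pyruvate kinase and lactate dehydrogenase to NADH oxidation, read as falling absorbance at 340 nm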
T2 construct: VEGF-R2Δ50 contains residues 806-939 and 990-1171; made in house; host or cells: baculovirus/insect cells

[2] = biological target: T3, FGF-R1 intracellular kinase domain (Homo sapiens, UniProt P11362, C488A/C584S/L457V); test: FGF-R spectrophotometric assay; type: biochemical; details: @ 1 μM; read-out: FGF-P percent inhibition;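 also: coupled PK/LDH enzyme assay: ADP from kinase phosphoryl transfer drives NADH oxidation, read as absorbance decrease at 340 nm, with 2 mM ATP and poly(E4Y1) substrate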
T3 construct: starting from the endogenous methionine residue 456 to glutamate 766; made in house; host or cells: baculovirus expression system
Excerpt: The intracellular kinase domain of human FGF-R1 was expressed using the baculovirus vector expression system starting from the endogenous methionine residue 456 to glutamate 766, according to the residue numbering system of Mohammadi et al., Mol. Cell.
The production of ADP from ATP that accompanies phosphoryl transfer was coupled to oxidation of NADH using phosphoenolpyruvate (PEP) and a system having pyruvate kinase (PK) and lactic dehydrogenase (LDH). The oxidation of NADH was monitored by following the decrease of absorbance at 340 nm (e340=6.22 cm^−1 mM^−1) using a Beckman DU 650 spectrophotometer. […] Assays were initiated with 5 to 40 nM of enzyme. Ki values were determined by measuring enzyme activity in the presence of varying concentrations of test compounds. The data were analyzed using Enzyme Kinetic and Kaleidagraph software.
The spectrophotometric assay was carried out as described above for VEGF-R2, except for the following changes in concentration: FGF-R=50 nM, ATP=2 mM, and poly(E4Y1)=15 mM.

[3] = tested on: human umbilical vein endothelial cells (HUVEC); test: HUVEC proliferation assay (VEGF-stimulated, MTT); type: cell-based; details: Homo sapiens, HUVEC
How it was run: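 Proliferation measured by MTT reduction (4 h exposure, absorbance at 595) 72 hours after VEGF stimulation (final 6 ng/ml). Compound added to 24 h-starved HUVEC in F12K with 1% FBS and 0.1% final DMSO, one hour before the growth factor.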

[4] = biological target: T4, phosphorylated VEGF-R2Δ50 (FLVK-P) (Homo sapiens, UniProt P35968, DEL940-989/E990V); test: VEGF-R2 coupled spectrophotometric assay, phosphorylated construct (FLVK-P); type: biochemical
T4 construct: VEGF-R2Δ50 contains residues 806-939 and 990-1171; made in house; host or cells: baculovirus/insect cells
How it was run: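 Continuous PK/LDH-coupled spectrophotometric read (NADH loss at 340 nm) with 5–40 nM enzyme in 200 mM Hepes pH 7.5. Phosphorylated construct run at 1 mM ATP, 25 mM MgCl2, 5.1 mM poly(E4Y1); unphosphorylated at 3 mM ATP, 60 mM MgCl2 plus 2 mM MnCl2, 20 mM poly(E4Y1). Ki values derived from varied inhibitor concentrations.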

[5] = tested on: lung cancer cells (line MV522); test: Cancer cell proliferation (MV522) assay (MTT); type: cell-based; details: MV522
How it was run: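 Proliferation was read by MTT reduction 72 h after compound addition, in a 4-day protocol with no starvation step. Two thousand MV522 cells were seeded in RPMI1640 with 10% FBS and 2 mM glutamine and given 1 day to attach before dosing.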

[6] = with albumin, read-out: Huvec + Albumin IC50

T1 sequence (P06239 223-509 P223M/C224D): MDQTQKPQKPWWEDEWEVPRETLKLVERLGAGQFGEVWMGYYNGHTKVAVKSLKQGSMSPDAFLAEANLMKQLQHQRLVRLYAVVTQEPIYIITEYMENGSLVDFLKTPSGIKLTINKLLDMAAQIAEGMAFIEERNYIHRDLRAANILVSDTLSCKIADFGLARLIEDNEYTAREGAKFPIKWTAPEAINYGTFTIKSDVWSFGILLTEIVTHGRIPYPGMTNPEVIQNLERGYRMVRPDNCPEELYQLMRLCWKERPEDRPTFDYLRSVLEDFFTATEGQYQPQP
T4 sequence (P35968 with tags, fused parts or gaps DEL940-989/E990V limits assumed): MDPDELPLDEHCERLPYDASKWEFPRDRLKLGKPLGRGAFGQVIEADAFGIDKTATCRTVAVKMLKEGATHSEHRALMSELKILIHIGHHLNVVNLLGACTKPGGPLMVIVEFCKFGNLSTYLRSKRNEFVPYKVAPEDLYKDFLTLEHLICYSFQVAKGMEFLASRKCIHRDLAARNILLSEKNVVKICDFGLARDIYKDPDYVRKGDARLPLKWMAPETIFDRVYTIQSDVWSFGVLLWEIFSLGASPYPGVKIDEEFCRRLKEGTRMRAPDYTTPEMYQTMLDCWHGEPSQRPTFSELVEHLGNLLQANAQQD
T2 sequence (P35968 with tags, fused parts or gaps DEL940-989/E990V limits assumed): as above
T3 sequence (P11362 456-766 L457V/C488A/C584S): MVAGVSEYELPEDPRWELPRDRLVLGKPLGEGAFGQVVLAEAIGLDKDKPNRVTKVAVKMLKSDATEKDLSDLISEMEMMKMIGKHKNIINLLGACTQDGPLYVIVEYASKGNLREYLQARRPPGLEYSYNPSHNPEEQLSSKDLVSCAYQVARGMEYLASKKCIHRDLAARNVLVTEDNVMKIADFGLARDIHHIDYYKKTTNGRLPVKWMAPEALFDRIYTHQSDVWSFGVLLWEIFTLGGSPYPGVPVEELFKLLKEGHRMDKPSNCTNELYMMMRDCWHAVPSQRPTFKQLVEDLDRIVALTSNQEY

Structure (SMILES): COc1ccc(/C=C/c2cc(CCc3cccc(C(=O)Nc4ccc(C(C)C)c(C)c4)c3)[nH]n2)cc1OC [Example F-3, 3-(2-{5-[(E)-2-(3,4-Dimethoxyphenyl)ethenyl]-2H-pyrazol-3-yl}-ethyl)-N-(3-methyl-4-isopropylphenyl)-benzamide]
- inhibition at 1 µM (LCK tyrosine kinase): 84%
- Ki [1]: 0.31 nM
- inhibition at 1 µM [2]: 83%
- IC50 ([3]; read-out: HUVEC IC50): 10 nM
- Ki [4]: 1.01 nM
- IC50 [5]: > 10000 nM

Structure (SMILES): C/C=C/c1cc(COc2cc(C(=O)Nc3ccc(N4CCCC4)c(C(F)(F)F)c3)ccc2F)[nH]n1 [Example F-4, 4-Fluoro-3-[{5-((E)-1-propenyl)-2H-pyrazol-3-yl}methoxy]-N-[4-(pyrrolidin-1-yl)-3-trifluoromethylphenyl]benzamide]
- inhibition at 1 µM (LCK tyrosine kinase): 19%
- inhibition at 1 µM [2]: 18%
- IC50 ([3]; read-out: HUVEC IC50): 63 nM
- IC50 [5]: 2600 nM

Structure (SMILES): CNS(=O)(=O)c1ccc(Nc2cc(CCc3cccc(C(=O)Nc4ccc(C(C)C)c(C)c4)c3)[nH]n2)cc1 [Example G-1, N-(4-Isopropyl-3-methyl-phenyl)-3-{2-[5-(4-(methylsulfamoyl)phenylamino)-2H-pyrazol-3-yl]-ethyl}-benzamide]
- Ki (LCK tyrosine kinase): 90 nM
- inhibition at 1 µM [2]: 81%
- IC50 ([3]; read-out: HUVEC IC50): 10 nM
- IC50 [3, 6]: 435 nM
- Ki [4]: 0.592 nM
- IC50 [5]: > 10000 nM

Structure (SMILES): COc1ccc(Nc2cc(CCc3cccc(C(=O)Nc4ccc(C(C)C)c(C)c4)c3)[nH]n2)cn1 [Example G-4, N-(4-Isopropyl-3-methyl-phenyl)-3-{2-[5-(6-methoxypyridin-3-yl)amino-2H-pyrazol-3-yl]-ethyl}-benzamide]
- Ki (LCK tyrosine kinase): 72 nM
- Ki [1]: 0.1 nM
- inhibition at 1 µM [2]: 77%
- IC50 ([3]; read-out: HUVEC IC50): 16 nM
- Ki [4]: 0.79 nM
- IC50 [5]: > 10000 nM

Structure (SMILES): COc1ccc(Nc2cc(CCc3cccc(C(=O)Nc4ccc(N(C)C)c(C(F)(F)F)c4)c3)[nH]n2)cn1 [Example G-5, N-(4-Dimethylamino-3-trifluoromethylphenyl)-3-{2-[5-(6-methoxypyridin-3-yl)amino-2H-pyrazol-3-yl]ethyl}-benzamide]
- Ki (LCK tyrosine kinase): 69 nM
- Ki [1]: 0.35 nM
- inhibition at 1 µM [2]: 68%
- IC50 ([3]; read-out: HUVEC IC50): 8.4 nM
- Ki [4]: 1.86 nM
- IC50 [5]: > 10000 nM

Structure (SMILES): COc1ccc(Nc2cc(CCc3cccc(C(=O)Nc4cnc(N(C)C)c(C(F)(F)F)c4)c3)[nH]n2)cn1 [Example G-6, N-(6-Dimethylamino-5-trifluoromethylpyridin-3-yl)-3-{2-[5-(6-methoxypyridin-3-yl)amino-2H-pyrazol-3-yl]ethyl}-benzamide]
- Ki (LCK tyrosine kinase): 65 nM
- inhibition at 1 µM [2]: 74%
- IC50 ([3]; read-out: HUVEC IC50): 12 nM
- IC50 [3, 6]: 59 nM
- Ki [4]: 1.98 nM
- IC50 [5]: 10000 nM

Structure (SMILES): COc1ccc(Nc2cc(CCc3cccc(C(=O)Nc4ccc(N5CCNCC5)c(C(F)(F)F)c4)c3)[nH]n2)cn1 [Example G-10]
- inhibition at 1 µM (LCK tyrosine kinase): 48%
- Ki [1]: 3 nM
- inhibition at 1 µM [2]: 33%
- IC50 ([3]; read-out: HUVEC IC50): 5.7 nM
- IC50 [3, 6]: 180 nM
- Ki [4]: 2.6 nM
- IC50 [5]: 5100 nM

Structure (SMILES): Cc1ccc(C(=O)Nc2ccc(C(C)C)c(C)c2)cc1OCc1cncc2ccccc12 [Example K-11, N-(4-Isopropyl-3-methyl-phenyl)-4-methyl-3-(Isoquinolin-4-yl)methoxy-benzamide]
- inhibition at 1 µM (LCK tyrosine kinase): 82%
- inhibition at 1 µM [2]: 59%
- IC50 ([3]; read-out: HUVEC IC50): 37 nM
- Ki [4]: 3.49 nM
- IC50 [5]: 8100 nM

Structure (SMILES): Cc1cc(NC(=O)c2ccc(Cl)c(OCc3cncc4ccccc34)c2)ccc1C(C)C [Example K-12, N-(4-Isopropyl-3-methyl-phenyl)-4-chloro-3-(Isoquinolin-4-yl)methoxy-benzamide]
- inhibition at 1 µM (LCK tyrosine kinase): 48%
- inhibition at 1 µM [2]: 70%
- IC50 ([3]; read-out: HUVEC IC50): 27 nM
- Ki [4]: 2.96 nM
- IC50 [5]: 4700 nM

Structure (SMILES): O=C(Nc1ccc(N2CCNCC2)c(C(F)(F)F)c1)c1ccc(F)c(OCc2cncc3ccccc23)c1 [Example R-15, 4-Fluoro-N-(4-piperazin-1-yl-3-trifluoromethyl-phenyl)-3-(isoquinolin-4-ylmethoxy)-benzamide]
- inhibition at 1 µM (LCK tyrosine kinase): 26%
- Ki [1]: 8.8 nM
- inhibition at 1 µM [2]: 41%
- IC50 ([3]; read-out: HUVEC IC50): 36 nM
- IC50 [3, 6]: 130 nM
- IC50 [5]: 3100 nM
